Experimental data published in PubChem BioAssay (NCI).
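All cell lines were grown in 96-well plates and treated with compound for 48 hours. GI50 marks 50% less growth. At the TGI there is no net growth.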

What was measured:
Assay in all cases: inhibition of tumour cell growth, NCI panel, 48 h; in the data active = GI50 below about 0.43 µM; inactive = the rest
UO-31 renal = system: UO-31 renal
OVCAR-4 ovarian = system: OVCAR-4 ovarian
UACC-62 melanoma = system: UACC-62 melanoma
IGROV1 ovarian = system: IGROV1 ovarian
HCT-116 colon = system: HCT-116 colon
T-47D breast = system: T-47D breast
DU-145 prostate = system: DU-145 prostate
NCI-H23 lung = system: NCI-H23 lung
SNB-19 CNS = system: SNB-19 CNS
HOP-62 NSCLC = system: HOP-62 NSCLC
SW-620 colon = system: SW-620 colon
CCRF-CEM leukemia = system: CCRF-CEM leukemia
PC-3 prostate = system: PC-3 prostate
HS 578T breast = system: HS 578T breast
SK-MEL-2 melanoma = system: SK-MEL-2 melanoma
A549 NSCLC = system: A549 NSCLC
A498 renal = system: A498 renal
SK-MEL-28 melanoma = system: SK-MEL-28 melanoma
NCI-H226 lung = system: NCI-H226 lung
NCI/ADR-RES ovarian = system: NCI/ADR-RES ovarian
U251 CNS = system: U251 CNS
UACC-257 melanoma = system: UACC-257 melanoma
ACHN renal = system: ACHN renal
HOP-92 NSCLC = system: HOP-92 NSCLC
SK-MEL-5 melanoma = system: SK-MEL-5 melanoma
OVCAR-8 ovarian = system: OVCAR-8 ovarian
OVCAR-3 ovarian = system: OVCAR-3 ovarian
KM12 colon = system: KM12 colon
HT29 colon = system: HT29 colon
SN12C renal = system: SN12C renal
MDA-MB-231 breast = system: MDA-MB-231 breast
TK-10 renal = system: TK-10 renal
COLO 205 colon = system: COLO 205 colon
786-0 renal = system: 786-0 renal
BT-549 breast = system: BT-549 breast
M14 melanoma = system: M14 melanoma
NCI-H460 lung = system: NCI-H460 lung
SF-268 CNS = system: SF-268 CNS
HL-60(TB) leukemia = system: HL-60(TB) leukemia
HCT-15 colon = system: HCT-15 colon
SNB-75 CNS = system: SNB-75 CNS
MDA-MB-435 = system: MDA-MB-435
OVCAR-5 ovarian = system: OVCAR-5 ovarian
HCC-2998 colon = system: HCC-2998 colon
K-562 leukemia = system: K-562 leukemia
LOX IMVI melanoma = system: LOX IMVI melanoma
MCF7 breast = system: MCF7 breast
RPMI-8226 leukemia = system: RPMI-8226 leukemia
CAKI-1 renal = system: CAKI-1 renal
MOLT-4 leukemia = system: MOLT-4 leukemia
SR leukemia = system: SR leukemia
RXF 393 renal = system: RXF 393 renal
MALME-3M melanoma = system: MALME-3M melanoma
SK-OV-3 ovarian = system: SK-OV-3 ovarian
SF-539 CNS = system: SF-539 CNS
SF-295 CNS = system: SF-295 CNS
EKVX NSCLC = system: EKVX NSCLC
MDA-N = system: MDA-N
NCI-H522 lung = system: NCI-H522 lung

COc1ccc(/C=C2\CCCC3=C2NC(C)=NC3c2ccc(OC)c(OC)c2)cc1OC (stereo unspecified)
> 100 µM: TGI (UO-31 renal) | TGI (OVCAR-4 ovarian) | TGI (UACC-62 melanoma) | TGI (IGROV1 ovarian) | TGI (T-47D breast) | TGI (DU-145 prostate) | TGI (NCI-H23 lung) | TGI (SNB-19 CNS) | TGI (SW-620 colon) | TGI (CCRF-CEM leukemia) | TGI (PC-3 prostate) | TGI (HS 578T breast) | TGI (SK-MEL-2 melanoma) | TGI (A549 NSCLC) | TGI (A498 renal) | TGI (SK-MEL-28 melanoma) | TGI (NCI/ADR-RES ovarian) | TGI (U251 CNS) | TGI (UACC-257 melanoma) | TGI (ACHN renal) | TGI (SK-MEL-5 melanoma) | TGI (OVCAR-8 ovarian) | TGI (OVCAR-3 ovarian) | TGI (KM12 colon) | TGI (HT29 colon) | TGI (SN12C renal) | TGI (COLO 205 colon) | TGI (786-0 renal) | TGI (BT-549 breast) | TGI (M14 melanoma) | TGI (NCI-H460 lung) | TGI (SF-268 CNS) | TGI (HL-60(TB) leukemia) | TGI (HCT-15 colon) | TGI (SNB-75 CNS) | TGI (MDA-MB-435) | TGI (OVCAR-5 ovarian) | TGI (HCC-2998 colon) | TGI (K-562 leukemia) | TGI (LOX IMVI melanoma) | TGI (MCF7 breast) | TGI (CAKI-1 renal) | TGI (MOLT-4 leukemia) | TGI (SR leukemia) | TGI (MALME-3M melanoma) | TGI (SK-OV-3 ovarian) | TGI (SF-539 CNS)
22.1 µM: TGI (HCT-116 colon)
99.8 µM: TGI (NCI-H226 lung)
74.7 µM: TGI (TK-10 renal)
92.6 µM: TGI (HOP-92 NSCLC)
75.3 µM: TGI (MDA-MB-231 breast)
inactive: GI50 (UO-31 renal) 31.1 µM | GI50 (OVCAR-4 ovarian) 12.4 µM | GI50 (UACC-62 melanoma) 12.9 µM | GI50 (IGROV1 ovarian) 50.6 µM | GI50 (HCT-116 colon) 2.39 µM | GI50 (T-47D breast) 14.7 µM | GI50 (DU-145 prostate) 16.5 µM | GI50 (NCI-H23 lung) 28.6 µM | GI50 (SNB-19 CNS) 67.1 µM | GI50 (HOP-62 NSCLC) 3.75 µM | GI50 (SW-620 colon) 7.69 µM | GI50 (CCRF-CEM leukemia) 2.75 µM | GI50 (PC-3 prostate) 37.4 µM | GI50 (HS 578T breast) 39.1 µM | GI50 (SK-MEL-2 melanoma) 15.9 µM | GI50 (A549 NSCLC) 53.7 µM | GI50 (A498 renal) 16.4 µM | GI50 (SK-MEL-28 melanoma) > 100 µM | GI50 (NCI-H226 lung) 12.2 µM | GI50 (NCI/ADR-RES ovarian) 15.2 µM | GI50 (U251 CNS) 23.4 µM | GI50 (UACC-257 melanoma) 10.9 µM | GI50 (ACHN renal) 6.74 µM | GI50 (HOP-92 NSCLC) 18.9 µM | GI50 (SK-MEL-5 melanoma) 9.43 µM | GI50 (OVCAR-8 ovarian) 4.68 µM | GI50 (OVCAR-3 ovarian) 5.47 µM | GI50 (KM12 colon) 61.2 µM | GI50 (HT29 colon) 21.7 µM | GI50 (SN12C renal) 63.9 µM | GI50 (MDA-MB-231 breast) 12.9 µM | GI50 (TK-10 renal) 12.3 µM | GI50 (COLO 205 colon) 5.5 µM | GI50 (786-0 renal) 33.7 µM | GI50 (BT-549 breast) 23.7 µM | GI50 (M14 melanoma) 18.6 µM | GI50 (NCI-H460 lung) 47.7 µM | GI50 (SF-268 CNS) 21 µM | GI50 (HL-60(TB) leukemia) 5.84 µM | GI50 (HCT-15 colon) 3.52 µM | GI50 (SNB-75 CNS) 32 µM | GI50 (MDA-MB-435) 1.05 µM | GI50 (OVCAR-5 ovarian) 71 µM | GI50 (HCC-2998 colon) > 100 µM | GI50 (K-562 leukemia) 4.54 µM | GI50 (LOX IMVI melanoma) 51.1 µM | GI50 (MCF7 breast) 2.44 µM | GI50 (RPMI-8226 leukemia) 0.848 µM | GI50 (CAKI-1 renal) 21.4 µM | GI50 (MOLT-4 leukemia) 24.8 µM | GI50 (SR leukemia) 1.99 µM | GI50 (RXF 393 renal) 4.02 µM | GI50 (MALME-3M melanoma) 22.2 µM | GI50 (SK-OV-3 ovarian) 19.2 µM | GI50 (SF-539 CNS) 27.5 µM
56.3 µM: TGI (RPMI-8226 leukemia)
38.8 µM: TGI (HOP-62 NSCLC)
16.3 µM: TGI (RXF 393 renal)

CC1OC(c2ccccc2)=CC(OCc2ccccc2)[C@H]1OCc1ccccc1 (stereo partly specified)
> 10 µM: TGI (SF-295 CNS) | TGI (UACC-62 melanoma) | TGI (IGROV1 ovarian) | TGI (T-47D breast) | TGI (NCI-H23 lung) | TGI (HOP-62 NSCLC) | TGI (SW-620 colon) | TGI (CCRF-CEM leukemia) | TGI (PC-3 prostate) | TGI (A549 NSCLC) | TGI (SK-MEL-28 melanoma) | TGI (EKVX NSCLC) | TGI (SK-MEL-5 melanoma) | TGI (OVCAR-8 ovarian) | TGI (KM12 colon) | TGI (SN12C renal) | TGI (MDA-MB-231 breast) | TGI (TK-10 renal) | TGI (786-0 renal) | TGI (M14 melanoma) | TGI (SF-268 CNS) | TGI (MDA-N) | TGI (HCT-15 colon) | TGI (SNB-75 CNS) | TGI (HCC-2998 colon) | TGI (MCF7 breast) | TGI (RPMI-8226 leukemia) | TGI (CAKI-1 renal) | TGI (MOLT-4 leukemia) | TGI (SR leukemia) | TGI (RXF 393 renal) | TGI (MALME-3M melanoma) | TGI (SK-OV-3 ovarian)

CC1=CCS(=O)(=O)C1C(O)C1=C(C)CCCC1(C)C (stereo unspecified)
> 100 µM: TGI (UO-31 renal) | TGI (OVCAR-4 ovarian) | TGI (SF-295 CNS) | TGI (UACC-62 melanoma) | TGI (IGROV1 ovarian) | TGI (HCT-116 colon) | TGI (T-47D breast) | TGI (DU-145 prostate) | TGI (NCI-H23 lung) | TGI (SNB-19 CNS) | TGI (HOP-62 NSCLC) | TGI (SW-620 colon) | TGI (CCRF-CEM leukemia) | TGI (PC-3 prostate) | TGI (SK-MEL-2 melanoma) | TGI (A549 NSCLC) | TGI (A498 renal) | TGI (SK-MEL-28 melanoma) | TGI (EKVX NSCLC) | TGI (NCI-H226 lung) | TGI (NCI/ADR-RES ovarian) | TGI (U251 CNS) | TGI (UACC-257 melanoma) | TGI (ACHN renal) | TGI (SK-MEL-5 melanoma) | TGI (OVCAR-8 ovarian) | TGI (NCI-H522 lung) | TGI (OVCAR-3 ovarian) | TGI (KM12 colon) | TGI (HT29 colon) | TGI (SN12C renal) | TGI (MDA-MB-231 breast) | TGI (TK-10 renal) | TGI (COLO 205 colon) | TGI (786-0 renal) | TGI (M14 melanoma) | TGI (HL-60(TB) leukemia) | TGI (MDA-N) | TGI (HCT-15 colon) | TGI (SNB-75 CNS) | TGI (MDA-MB-435) | TGI (OVCAR-5 ovarian) | TGI (HCC-2998 colon) | TGI (K-562 leukemia) | TGI (LOX IMVI melanoma) | TGI (MCF7 breast) | TGI (RPMI-8226 leukemia) | TGI (CAKI-1 renal) | TGI (MOLT-4 leukemia) | TGI (RXF 393 renal) | TGI (MALME-3M melanoma) | TGI (SK-OV-3 ovarian) | TGI (SF-539 CNS)
